Patent publication US5081253A, “Imidazo(4,5-C)pyridines as antiosteoporotic agents” (American Home Products Corporation, priority 1990, dated 1992)

Key:
[1] = system: Rat Limb Bones (PTH induced bone resorption); assay: Bone Resorption Assay: 45Ca Release from Rat Limb Bones (PTH Induced); format: cell-based, rat (Sprague-Dawley CD); settings: 10 μg/mL
Description: The purpose of this assay is to identify compounds that inhibit basal or stimulated bone resorption in culture.
The ability of 2-substituted-imidazo[4,5-c]pyridines to modify the process of bone resorption was evaluated essentially as described by L.G. Raisz, Bone resorption in tissue culture. Factors influencing the response to parathyroid hormone.
Timed pregnant Sprague-Dawley CD® rats (Charles River) are administered 100 μCi ^45 CaCl2 (NEN calcium -45 NEZ-013) in 100 μL of 0.9% saline, subcutaneously, on day 18 of gestation. The rats are sacrificed the following day by CO2 asphyxiation. The fetuses are removed and the right forelimbs excised and placed in a Petri dish containing ice cold explant medium consisting of modified BGJb -Fitton Jackson media (custom formulation, Gibco No. 78-0088) adjusted to pH 7.3 to which 10 mM TES is added. […] Under a dissecting microscope, the bones are gently cleaned of adherent tissue and the cartilaginous ends removed. Incubation and drug treatment. […] The preincubation medium is brought to 37° C. prior to transfer of bones. The preincubation medium consists of the modified BGJb medium (with salts and glucose as above), pH 7.3, containing 29 mM NaHCO3. […] For compounds that require nonaqueous solvents, dilutions are made from the appropriate stock solution with medium. In these instances, basal and bone resorption stimulated controls exposed to an equivalent concentration of the vehicle are included. […] The right ulna and radius from each fetus are used. Both bones are subjected to the same treatment and each treatment group consists of bones from 4 or more fetuses. Treatments are randomly assigned using a preclinical statistics program (PS-ALLOC). After a 48 hour incubation at 37° C. in 5% CO2, the bones are removed from the medium and extracted in 0.5 mL of 0.1N HCl for 1 or more days. Duplicate 150 μL aliquots of the incubation medium and the bone extract are analyzed for ^45 Ca radioactivity in 5 mL of liquid scintillation cocktail.
The percentage of bone ^45 Ca released into the medium is determined as follows: [formula] […]

[2] = system: Rat Limb Bones (basal bone resorption); assay: Basal Bone Resorption Assay: 45Ca Release from Rat Limb Bones; format: cell-based; settings: 10 μg/mL
Excerpt: The purpose of this assay is to test stimulators and inhibitors of bone resorption in vitro. The release of ^45 Ca from in vitro labeled murine bone explants into the culture media is taken as an index of bone resorption.
Rat pups are labelled […] by injecting pregnant dams (18 days) with 100 μCi of ^45 Ca.
Two days after the initiation of labelling, the dam is anesthetized with halothane and killed by cervical dislocation. The pups are ablated and quickly decapitated. The calvaria (frontal and parietal bones), forelimbs (containing radii and ulnae), and hind limbs (tibiae) are removed and placed in control media in a petri dish. Bones are debrided of soft tissue by a combination of blunt dissection, and gentle rolling on bibulous paper, taking care not to disturb the periosteum. Cartilaginous ends are cut off long bones. Calvaria are cut in half along midline suture. Bones are separated into 3 categories: calvaria halves, Tibiae and ulnae/radii. Groups of eight (per bone group) are randomly placed in 24-well culture plates containing 0.5 mL of control media. Cultures are maintained at 37° C. in a humidified incubator of 95% air: 5% CO2.
These bones are incubated for 24 hours, media is aspirated from the bones and replaced with fresh media containing test substances. Each bone group has a control group of 8 and a dead bone group of 8. The devitalized cultures are obtained by heating the bones in medium at 55° C. for 60 minutes. The bones are incubated at 37° C. for an additional 72 hours. At the end of this period a 100 microliter aliquot of media is removed and placed in a scintillation vial. Ten mL of Aquasol is added, the ^45 Ca is quantified in a scintillation spectrometer. Bones are rinsed in saline, placed in a scintillation vial, hydrolyzed overnight in 0.75 mL 6N HCl at room temperature. The hydrolyzed bone solution is neutralized by the addition of 2.25 mL of 2N NaOH, followed by 10 mL of Aquasol, the ^45 Ca content is determined by scintillation spectrometry.
Analysis: ^45 Ca release into culture medium from the 24-96 hour period is individually compared to ^45 Ca release in control cultures and to devitalized bone via Dunnett's test. […]

[3] = system: osteopenia induced by denervation of the sciatic nerve in rats; assay: Denervation Induced Osteopenia in Rats; format: in vivo, rat (female Sprague Dawley CD)
Excerpt: The purpose of this assay is to evaluate the effect, in rats, of agents on the reduction in bone mass (osteopenia) induced by immobilization resulting from surgical severance (denervation) of the sciatic nerve.
The animals are housed in plastic cages (4 or 5 rats/cage) with food (rat purina 500 chow) and water ad libitum; 14/10 day/night cycle.
After one week of in-house acclimatization, the animals are randomly divided into groups of 6 to 10 rats/group. Each rat is weighed, anesthetized with an intraperitoneal administration of 100 mg/kg ketamine (Bristol Laboratories, Syracuse, N.Y.) and 0.75 mg/kg Acepromazine (Aveco, Ft. Dodge, Iowa). The left hind limb is shaved and denervated by making a lateral incision parallel to the femur and by surgically removing half of a centimeter of the sciatic nerve adjacent to caudofemoralis and adductor brevis muscles. The incision is closed with wound clips. After surgery, the rats are housed in cages with absorbent bedding to minimize additional trauma to the immobilized limb. A 24 hour post-surgery recovery period is allowed before the initiation of the drug treatment.
The concentration of the drug stock is calculated to be delivered in a volume of 0.1 mL/100 gram body weight. The drug solution or a uniform suspension is prepared in 1% Tween 80 in normal saline. The drugs are administered via oral or parenteral routes daily (five times a week) for four weeks.
A sequential triple labeling of mineralized tissue is employed to determine the osseous changes (especially the bone formation) and the mineralization rates. Each animal is administered 90 mg/kg Xylenol orange (Fisher Scientific Company), S.C., 15 mg/kg Calcein (Sigma Chemical Company), S.C. and 15 mg/kg Demeclocycline (Sigma Chemical Company), i.p., approximately 21 days, 10 days and 2 days prior to the termination of the study, respectively.
At the end of the fourth week, each rat is weighed, anesthetized with an intraperitoneal administration of 100 mg/kg ketamine with 0.75 mg/kg Acepromazine and approximately 4 mL of blood collected via cardiac puncture. The anesthetized rats are euthanized by exposure to carbon dioxide. The femora and tibiae from both limbs are dissected free of soft tissue. (i) Femora are ashed at ~1100° C. for 16 hours using a muffle furnace. --(ii) Proximal tibia are fixed, dehydrated and embedded undecalcified in a methyl methacrylate-glycol methacrylate mixture. Longitudinal tissue sections (10 microns) are prepared on a Polycut S microtome (Reichert). Staining is performed on free-floating sections using a modified Goldner's stain, which are then mounted and coverslipped.
Cancellous bone content in the proximal tibia is quantified (as two dimensional bone mineral area [B.Ar]) with an image analysis processing device (software developed by Drexel University).
The areas of the tibia selected for cancellous bone content evaluation are the primary and secondary spongiosa. To select and standardize this area for evaluation, the epiphyseal growth plate-metaphyseal junction is oriented parallel to the abscissa of the digitizing screen. Bone elements 1.7 mm (secondary spongiosa) and 0.2 mm (primary spongiosa) from the growth plate and equidistant from the flanking cortical elements are then quantified as described above. The total area evaluated is 2.30 mm wide and 1.45 mm deep, constituting a 3.34 mm^2 area.
Body weight, femur mass (dried or ashed) and trabecular (cancellous) bone mineral area (B.Ar) are determined.
The difference (both absolute and percent change) in femur mass and bone mineral area between intact (control) and denervated limbs of a treatment group are compared with that for the vehicle group using a one-way analysis of variance with Dunnett's test, or other multiple comparison methods.
The results are reported in Table I and II under the heading In Vivo.

Structure (SMILES) | Inhibition of Bone Resorption, PTH Induced ([1]; Table I) | Inhibition of Bone Resorption, Basal ([2]; Table I) | Inhibition of Bone Resorption, In Vivo ([3]; po, 672 h) | Inhibition of Bone Resorption, PTH Induced ([1]; Table II) | Inhibition of Bone Resorption, Basal ([2]; Table II) | Inhibition of Bone Resorption, In Vivo ([3]; Table II, 25 mg/kg, p.o.)
Cc1cc(C)c(C[S+]([O-])c2nc3cnccc3[nH]2)c(C)c1 (stereo not drawn) [Example 19, 2-[[(2,4,6-Trimethylphenyl)methyl]sulfinyl]-1H-imidazo[4,5-c]pyridine] | Active | Active | Inactive |  |  | 
[O-][S+](Cc1ccc(Br)cc1F)c1nc2cnccc2[nH]1 (stereo not drawn) [Example 21, 2-[[(4-Bromo-2-fluorophenyl)methyl]sulfinyl]-1H-imidazo[4,5-c]pyridine] | Active | Active | Inactive |  |  | 
[O-][S+](Cc1cccc(OCc2ccccc2)c1)c1nc2cnccc2[nH]1 (stereo not drawn) [Example 23] | Active | Active | Inactive |  |  | 
[O-][S+](Cc1cc2c(cc1Cl)OCO2)c1nc2cnccc2[nH]1 (stereo not drawn) [Example 25] | Active | Active | Inactive |  |  | 
COc1ccc(CSc2nc3cnccc3[nH]2)cc1 [Example 26, 2-[[(4-Methoxyphenyl)methyl]thio]-1H-imidazo[4,5-c]pyridine] |  |  |  | Active | Inactive | Inactive
Fc1ccc(CSc2nc3cnccc3[nH]2)cc1F [Example 30, 2-[[(3,4-Difluorophenyl)methyl]thio]-1H-imidazo[4,5-c]pyridine] |  |  |  | Inactive | Inactive | Inactive
[O-][S+](Cc1ccc(F)c(F)c1)c1nc2cnccc2[nH]1 (stereo not drawn) [Example 31, 2-[[(3,4-Difluorophenyl)methyl]sulfinyl]-1H-imidazo[4,5-c]-pyridine-One Tenth Hydrate] | Active | Active | Inactive |  |  | 
Fc1c(F)c(F)c(CSc2nc3cnccc3[nH]2)c(F)c1F [Example 32, 2-[[(Pentafluorophenyl)methyl]thio]-1H-imidazo[4,5-c]pyridine] |  |  |  | Inactive | Inactive | Inactive
